Test results from US12461089B2, “Olfactory receptor involved in the perception of musk fragrance and the use thereof” (ChemoSensoryX Biosciences SA, priority 2017, dated 2025).

Tests used:
Type in all cases: cell-based
OR5A2_variant 1 = target: T1, OR5A2_variant 1 (Homo sapiens, UniProt Q8NGI9); assay: Luciferase reporter concentration-response analysis on OR5A2_variant 1; settings: CRE-luciferase; semi-logarithmic serial dilutions; empty vector pEFIBRHO as control
T1 construct: expressed in transfected cells; host or cells: HEK293T-RTP1A1/RTP2
T1 sequence (Q8NGI9 1-324): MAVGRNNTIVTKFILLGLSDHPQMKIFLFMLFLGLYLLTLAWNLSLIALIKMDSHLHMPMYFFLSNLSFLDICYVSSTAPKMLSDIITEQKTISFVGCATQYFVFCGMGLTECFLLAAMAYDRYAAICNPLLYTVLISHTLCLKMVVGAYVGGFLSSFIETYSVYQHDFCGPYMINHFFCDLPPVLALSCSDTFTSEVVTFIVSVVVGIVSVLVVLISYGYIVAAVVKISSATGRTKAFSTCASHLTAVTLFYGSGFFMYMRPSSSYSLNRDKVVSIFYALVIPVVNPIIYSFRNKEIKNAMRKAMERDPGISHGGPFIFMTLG
Procedure: (§1) HEK293T-RTP1A1/RTP2 cells were maintained in minimal essential medium (EMEM, Lonza) containing 10% fetal bovine serum (M10). These cells were generated by transfecting HEK293T with an expression vector containing the sequences of the chaperone proteins RTP1A1 and RTP2 and a resistance gene to puromycin, using Lipofectamine 2000.
(§2) Odorant molecules were diluted at a concentration of 1 mole/liter (M) into dimethyl sulfoxide (DMSO) to generate stock solutions.
(§3) For concentration-response analysis, serial dilutions of the tested molecules were prepared from stock solutions in EMEM plated into 96-well plates.
(§4) For the initial deorphanisation screening and dose-response analysis, a Luciferase-based gene reporter assay (Promega, Leiden, The Nederlands) was used. Briefly, cells were platted on Poly-D-lysine-coated 96-well and transfected with a plasmid containing the CRE-luciferase and a plasmid containing the olfactory receptor. Sixteen hours after transfection, the culture medium was replaced by serum-free EMEM containing the tested compounds at a determined concentration. After four hours of incubation at 37° C. degree, cells were lysed and processed for luminescence measurement. Luminescene emission was recorded. Results were expressed as luciferase activity (Relative […] Unit (RLU)) or as percentage of the response induced by 10 μM of the adenylate cyclase activator Forskolin. An empty plasmid is used as negative control.
(§5) 35 musk compounds from the four structurally different chemical groups previously described were tested in concentration-response analyses (Table 2). In each experiment, an empty vector was used as negative control (pEFIBRHO). […] Full results including the calculated EC50 are given in Table 2; “non active” represent negative experiments, no activation after testing.

OR11A1 = target: T2, OR11A1 (Homo sapiens, UniProt Q9GZK7); assay: Luciferase reporter concentration-response analysis on OR11A1; settings: CRE-luciferase; empty vector pEFIBRHO as control
T2 construct: expressed in transfected cells; host or cells: HEK293T-RTP1A1/RTP2
T2 sequence (Q9GZK7 1-315): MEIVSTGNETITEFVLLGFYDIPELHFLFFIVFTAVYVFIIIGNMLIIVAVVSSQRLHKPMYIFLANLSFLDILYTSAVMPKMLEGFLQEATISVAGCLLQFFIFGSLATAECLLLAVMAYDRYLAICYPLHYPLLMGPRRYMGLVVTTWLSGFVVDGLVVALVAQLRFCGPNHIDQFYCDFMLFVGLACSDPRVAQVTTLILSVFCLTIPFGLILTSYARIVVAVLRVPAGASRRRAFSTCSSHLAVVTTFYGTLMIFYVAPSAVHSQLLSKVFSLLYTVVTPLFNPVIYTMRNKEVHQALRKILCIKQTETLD
Procedure: as §1, §2, §3, §4, §5
These compounds were tested in concentration-response analysis in luciferase assays, as described previously. In each experiment, an empty vector was used as negative control (pEFIBRHO).

OR5A1 = target: T3, OR5A1 (Homo sapiens, UniProt Q8NGJ0); assay: Luciferase reporter concentration-response analysis on OR5A1; settings: CRE-luciferase; empty vector pEFIBRHO as control
T3 construct: expressed in transfected cells; host or cells: HEK293T-RTP1A1/RTP2
T3 sequence (Q8NGJ0 1-315): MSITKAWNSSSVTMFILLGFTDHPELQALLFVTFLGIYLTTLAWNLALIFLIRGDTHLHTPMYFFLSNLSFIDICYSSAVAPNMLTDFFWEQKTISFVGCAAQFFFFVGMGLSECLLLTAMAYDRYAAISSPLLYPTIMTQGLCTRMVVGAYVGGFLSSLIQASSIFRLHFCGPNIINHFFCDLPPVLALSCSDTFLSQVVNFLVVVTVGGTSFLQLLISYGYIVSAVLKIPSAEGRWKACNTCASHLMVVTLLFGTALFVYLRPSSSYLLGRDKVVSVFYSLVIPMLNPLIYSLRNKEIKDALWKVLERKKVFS
Procedure: as §1, with “2000. The recombinant cell population, used in these experiments, was selected by adding 10 μg/ml of puromycin into the culture medium and subsequently subcloned (WO 2014/191047 A1).” for “2000.”
as §2, §3
as §4, with “Briefly, cells were platted on Poly-D-lysine-coated 96-well and transfected with a plasmid containing the CRE-luciferase and a plasmid containing the olfactory receptor.” left out, “An empty plasmid is used as negative control.” left out

OR5AN1 = target: T4, OR5AN1 (Homo sapiens, UniProt Q8NGI8, E89G); assay: Luciferase reporter concentration-response analysis on OR5AN1; settings: CRE-luciferase; empty vector pEFIBRHO as control
T4 construct: expressed in transfected cells; host or cells: HEK293T-RTP1A1/RTP2
T4 sequence (Q8NGI8 1-311 E89G): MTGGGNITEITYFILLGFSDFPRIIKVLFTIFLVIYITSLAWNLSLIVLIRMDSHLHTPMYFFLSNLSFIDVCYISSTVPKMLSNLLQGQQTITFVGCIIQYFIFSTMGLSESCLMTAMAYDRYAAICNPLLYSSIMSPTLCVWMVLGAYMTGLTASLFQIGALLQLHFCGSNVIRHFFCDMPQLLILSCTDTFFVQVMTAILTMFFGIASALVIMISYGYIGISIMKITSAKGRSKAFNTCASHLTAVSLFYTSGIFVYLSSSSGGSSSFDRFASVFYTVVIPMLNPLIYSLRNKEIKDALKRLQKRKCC
Procedure: as §1, with “2000. The recombinant cell population, used in these experiments, was selected by adding 10 μg/ml of puromycin into the culture medium and subsequently subcloned (WO 2014/191047 A1).” for “2000.”
as §2, §3, §4
In these analyses we also included ORs previously described as musk-specific receptors OR5AN1 (SEQ ID n° 7) (WO 2015/020158 A1, Shirasu et al. 2014 Neuron 81, 165-78, Sato-Akuhara N et al. 2016 J Neurosci. 36(16), 4482-91) and OR11A1 (SEQ ID n° 8) (WO 2016/201152 A1). […] Therefore, OR5A1 was included in the analyses. 35 musk compounds from the four structurally different chemical groups previously described were tested in concentration-response analyses (Table 2). In each experiment, an empty vector was used as negative control (pEFIBRHO). […] Full results including the calculated EC50 are given in Table 2; “non active” represent negative experiments, no activation after testing. […]

chimeric OR5A2_variant 1 = target: T5, chimeric OR5A2_variant 1 (Homo sapiens, UniProt Q8NGI9, F293L/H55R/I289L/M58T); assay: Luciferase reporter concentration-response analysis on chimeric OR5A2_variant 1; settings: CRE-luciferase, empty vector pEFIBRHO as control
T5 construct: expressed in transfected cells; host or cells: HEK293T-RTP1A1/RTP2
T5 sequence (Q8NGI9 with tags, fused parts or gaps H55R/M58T/I289L/F293L): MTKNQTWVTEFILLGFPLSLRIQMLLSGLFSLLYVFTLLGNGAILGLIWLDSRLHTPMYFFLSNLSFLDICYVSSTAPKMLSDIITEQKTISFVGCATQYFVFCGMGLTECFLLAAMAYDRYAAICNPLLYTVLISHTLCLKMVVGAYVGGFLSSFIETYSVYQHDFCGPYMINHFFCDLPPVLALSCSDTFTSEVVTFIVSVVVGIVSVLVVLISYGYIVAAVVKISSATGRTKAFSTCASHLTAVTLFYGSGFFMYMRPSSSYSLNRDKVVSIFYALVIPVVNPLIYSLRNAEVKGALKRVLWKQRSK
Procedure: as §1, §2, §3, §4
To test if the amino acids substitution could impact the musk sensitivity, and specificity and to validate the Krautwurst's model, luciferase assays were performed as described previously after transfection of the chimeric OR5A2_variant 1. Cells were treated with semi-logarithmic serial dilutions of musk compounds from the four structurally different groups described earlier.
In each experiment, an empty vector was used as negative control (pEFIBRHO).

CCC1(O)C2(C)CCC(C2)C1(C)C (stereo not drawn) [2 ethyl-fenchol]
activation of OR5A2 (OR5A2_variant 1), concentration-response (OR5A2_variant 1): stimulated neither | activation of OR11A1, concentration-response (OR11A1): able to activate OR11A1 only | activation of OR5A1, concentration-response (OR5A1): able to activate OR11A1 only | activation of OR5AN1, concentration-response (OR5AN1): stimulated neither | activation of chimeric OR5A2_variant 1, concentration-response (chimeric OR5A2_variant 1): not activated | activation of chimeric OR5A2_variant 1, concentration-response (chimeric OR5A2_variant 1; listed as ethyl-fenchol): not able to activate
